Earlier results on 11 molecules are cited in patent US20240408115A1, “COMPOSITION AND METHODS OF TREATMENT USING […] - ENHANCED SUPPLEMENTATION” (Xygenyx Inc., priority 2023, published 2024).

For series [1] the following is noted: in vivo.
For series [2] the following is noted: penetration enhancer for transdermal drugs.
For series [3] the following is noted: compared to α-tocopherol = 1.0.
For series [4] the following is noted: topical formulations, within four weeks of treatment.
For series [5] the following is noted: in vivo. This is another data set of the same source.
The conditions of series [6]: topical, concentrations 0.5-5%.
The test system of series [7] is F2-isoprostane. As to conditions: large doses of 1600-3200 IU/day.
The conditions of series [8]: dietary supplementation, doses up to 400 IU/day.
The conditions of series [9]: dietary intake in equal portions.
The subject of series [10] is wide dynamic range neurons in the ventroposterolateral nucleus of the thalamus. To be noted: in vivo.

Non-standard residues stand in square brackets, D forms with d. Residues, ends and D or L forms follow the SMILES beside them. Cit = NC(=O)NCCC[C@H](N)C(=O)O Where only a bound is given, the exact number is not on record here.

Turning to “HGH: hormone comprising a peptide chain that is synthesized in the pituitary gland”, in series [1], the biological half-life is reported as 10-20 minutes.

For `CC12CCC(CC1)C(C)(C)O2` [eucalyptol, 1,8-epoxy-p-menthane], in series [2], the “increase of transdermal drug uptake (factor)” value was “more than 10”.

As to `Cc1cc(O)c(C)c2c1O[C@](C)(CCC[C@H](C)CCC[C@H](C)CCCC(C)C)CC2` [β-tocopherol], in series [3], the relative biological activity is 0.5.

As to `CC[C@H](C)[C@H](NC(=O)[C@H](CC(=O)O)NC(=O)[C@@H](N)CCCCN)C(=O)N[C@@H](CCCNC(N)=O)C(N)=O` [Tripeptide-10 citrulline] (H-KDI[Cit]-NH2), in series [4], the improvement of suppleness is given as at most 54%.

On to `CCNC(=O)CC[C@H](N)C(=O)O` [Theanine], for which the “dose considered safe and well-tolerated” value in series [5] is “up to 400 mg per day”.

Take `Cc1cc(O)cc2c1O[C@](C)(CCC[C@H](C)CCC[C@H](C)CCCC(C)C)CC2` [δ-tocopherol]: the relative biological activity in series [3] is 0.03.

With `C=CCCCCCCCCC(=O)N[C@@H](Cc1ccccc1)C(=O)O` [UP, Undecylenoyl phenylalanine], the “time to skin lightening effects” value in [6] is given as at least 7 days.

Regarding `CC(C)[C@@H]1CC[C@@H](C)C[C@H]1O` [Menthol], the “increase of transdermal drug uptake (factor)” value in [2] was at least 10.

In the case of `Cc1c(C)c2c(c(C)c1O)CC[C@@](C)(CCC[C@H](C)CCC[C@H](C)CCCC(C)C)O2` [α-tocopherol], the “blood plasma concentration of F2-isoprostane” value in series [7] is recorded as “significantly lower”. Moreover, the relative biological activity in series [3] is 1.0. The “reduction of risk of coronary disease” value in series [8] is recorded as “up to 34%”. In addition, in [8] (controlled trials), the “reduction of risk of developing neurodegenerative diseases such as Alzheimer's Syndrome or dementia” value is at most 24%.

Consider `Cc1c(O)cc2c(c1C)O[C@](C)(CCC[C@H](C)CCC[C@H](C)CCCC(C)C)CC2` [γ-tocopherol], for which the relative biological activity in series [3] is 0.1. Besides, in [9], the “concentration in vivo relative to α-tocopherol” value is listed as “roughly 10%”.

Take `CCCCCc1cc(O)c2c(c1)OC(C)(C)C1CCC(C)=CC21` (stereo not drawn) [THC, Δ-9-tetrahydrocannabinol]: the “potency in mediating pain relative to morphine” value in series [10] was “ten times more powerful than morphine”.
